Experimental data taken from ChEMBL document CHEMBL1147873, “Synthesis and biological evaluation of novel analogues of dictyostatin” (Bioorg Med Chem Lett, 2007).

Key:
Format in all cases: functional, cell-based
ASPC1 = experiment: Cytotoxicity against human AsPC1 cells after 72 hrs by MTT assay; conditions: ASPC1, 72 h
PANC-1 = experiment: Cytotoxicity against human PANC1 cells after 72 hrs by MTT assay; conditions: PANC-1, 72 h
NCI = experiment: Cytotoxicity against human Taxol-adriamycin-resistant NCI cells after 72 hrs by MTT assay
DLD-1 = experiment: Cytotoxicity against human DLD1 cells after 72 hrs by MTT assay; conditions: DLD-1, 72 h

Row | Structure (SMILES) | IC50 (ASPC1) [nM] | IC50 (PANC-1) [nM] | IC50 (NCI) [nM] | IC50 (DLD-1) [nM]
1 | C=C/C=C\[C@H](C)[C@@H]1OC(=O)/C=C\C=C\[C@@H](C)[C@@H](O)C[C@H](O)/C=C\[C@H](C)[C@H](O)[C@@H](C)CCCC[C@@H](O)[C@@H]1C | 170 | 130 | 1500 | 85
2 | C=C/C=C\[C@H](C)[C@@H]1OC(=O)/C=C\C=C\[C@@H](C)[C@@H](O)C[C@@H](O)/C=C\[C@H](C)[C@H](O)[C@@H](C)C[C@@H](C)CC[C@@H](O)[C@@H]1C | 410 | 240 | 1100 | 150
3 | C=C/C=C\[C@H](C)[C@@H]1OC(=O)/C=C\C=C\[C@@H](C)[C@@H](O)C[C@@H](O)/C=C\[C@H](C)[C@H](O)[C@@H](C)CCCC[C@@H](O)[C@@H]1C | 2100 | 1500 | 2100 | 790
4 | C=C/C=C\[C@H](C)[C@@H]1OC(=O)/C=C\C=C\[C@@H](C)[C@@H](O)C[C@H](OC)/C=C\[C@H](C)[C@H](O)[C@@H](C)C[C@@H](C)CC[C@@H](O)[C@@H]1C | 31 | 9.7 | 8.2 | 2.4
5 | C=C/C=C\[C@H](C)[C@@H]1OC(=O)/C=C\C=C\[C@@H](C)[C@@H](O)C[C@H](O)/C=C\[C@H](C)[C@H](O)[C@@H](C)C[C@@H](C)CC[C@@H](O)[C@@H]1C [DICTYOSTATIN] |  |  | 9.8 | 
6 | C=C/C=C\[C@H](C)[C@H](OC(N)=O)[C@@H](C)[C@H](O)[C@@H](C)C/C(C)=C\[C@H](C)[C@@H](O)[C@@H](C)/C=C\[C@@H](O)C[C@@H]1OC(=O)[C@H](C)[C@@H](O)[C@H]1C [DISERMOLIDE] |  |  | 160 | 
